Assay results as given in US20230116602A1, “MCL1 INHIBITORS AND USES THEREOF” (California Institute of Technology, priority 2019, published 2023).
Read-outs that look alike come from different tables or passages of the source.

Legend:
[1] = target: BCLXL (Homo sapiens, UniProt Q07817); assay: BCLXL affinity assay (competition binding, qPCR readout); details: recombinant BCLXL, 11-point 3-fold dilution series
Description: (§1) Recombinant MCL1, BCL2 and BCXL proteins were prepared in either an E. coli host derived from the BL21 strain or in HEK-293 cells. The recombinant proteins were subsequently tagged with DNA for qPCR detection. Streptavidin-coated magnetic beads were treated for 30 minutes at room temperature with the respective biotinylated peptide ligands for each recombinant protein to generate affinity resins for the assays. The liganded beads were blocked with excess biotin and washed with blocking buffer (SeaBlock (Pierce), 1% BSA, 0.05% Tween 20, 1 mM DTT) to remove unbound ligand and to reduce nonspecific binding. Binding reactions were assembled by combining recombinant protein, liganded affinity beads, and test compounds in 1× binding buffer (20% SeaBlock, 0.17×PBS, 0.05% Tween 20, 6 mM DTT). Test compounds were prepared as 111X stocks in 100% DMSO. The compounds were then diluted directly into the assays such that the final concentration of DMSO was 0.9%. The assay plates were incubated at room temperature with shaking for 1 hour and the affinity beads were washed with wash buffer (1×PBS, 0.05% Tween 20). The beads were then re-suspended in elution buffer (1×PBS, 0.05% Tween 20, 0.5 μM non-biotinylated affinity ligand) and incubated at room temperature with shaking for 30 minutes. The recombinant protein concentration in the eluates was measured by qPCR. Kds were determined using an 11-point 3-fold compound dilution series with three DMSO control points.

[2] = target: BCL2 (Homo sapiens, UniProt P10415); assay: BCL2 affinity assay (competition binding, qPCR readout); details: recombinant BCL2, 11-point 3-fold dilution series
Description: as §1

[3] = target: MCL1 (Homo sapiens, UniProt Q07820); assay: MCL1 affinity assay (competition binding, qPCR readout); details: recombinant MCL1, 11-point 3-fold dilution series
In short: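 Competition binding: DNA-tagged recombinant protein (E. coli BL21-derived or HEK-293), biotinylated peptide ligand-loaded streptavidin beads and compound incubated 1 hour at room temperature, 0.9% DMSO final. Bound protein eluted with 0.5 μM non-biotinylated ligand and quantified by qPCR; Kd from 11-point 3-fold dilution series.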

[4] = system: drug-resistant cell lines of Table 3; assay: Cell line growth retardation assay, resistant cohort; format: cell-based, Human; details: arithmetic mean of IC50s over the resistant cohort of Table 3, 6 days growth, read-out: AvgRes IC50
In short: (§2)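 Cell lines classed as MCL1-inhibition sensitive or resistant were seeded, rested 24 h, then exposed to 10–0.0032 μM compound for 6 days. Cells were counted by imaging; growth inhibition was the ratio of population doublings with vs without compound from a pre-treatment baseline. IC50 from curve fits, averaged per cohort.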

[5] = system: drug-sensitive cell lines of Table 3; assay: Cell line growth retardation assay, sensitive cohort; format: cell-based, Human; details: for IC50: arithmetic mean of IC50s over the sensitive cohort of Table 3, 6 days growth, read-out: AvgSen IC50; for Fold Diff: average IC50 of resistant cohort divided by average IC50 of sensitive cohort
In short: as §2

BCLXL, sequence (Q07817 whole entry): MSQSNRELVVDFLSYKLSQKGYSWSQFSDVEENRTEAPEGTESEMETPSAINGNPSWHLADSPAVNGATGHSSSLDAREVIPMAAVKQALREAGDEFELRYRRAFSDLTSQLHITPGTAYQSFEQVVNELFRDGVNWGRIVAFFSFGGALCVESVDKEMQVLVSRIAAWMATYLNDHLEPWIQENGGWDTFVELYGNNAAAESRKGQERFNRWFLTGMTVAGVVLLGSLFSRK
MCL1, sequence (Q07820 whole entry): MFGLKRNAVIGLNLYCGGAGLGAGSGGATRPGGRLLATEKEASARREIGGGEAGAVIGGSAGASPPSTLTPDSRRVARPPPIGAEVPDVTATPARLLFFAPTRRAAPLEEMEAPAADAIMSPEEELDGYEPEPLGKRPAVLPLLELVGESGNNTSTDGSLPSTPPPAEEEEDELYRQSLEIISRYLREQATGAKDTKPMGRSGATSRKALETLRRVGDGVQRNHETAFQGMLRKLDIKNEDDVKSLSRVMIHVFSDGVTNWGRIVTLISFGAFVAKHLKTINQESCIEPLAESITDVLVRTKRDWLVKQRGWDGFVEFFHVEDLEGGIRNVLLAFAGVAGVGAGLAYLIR
BCL2, sequence (P10415 whole entry): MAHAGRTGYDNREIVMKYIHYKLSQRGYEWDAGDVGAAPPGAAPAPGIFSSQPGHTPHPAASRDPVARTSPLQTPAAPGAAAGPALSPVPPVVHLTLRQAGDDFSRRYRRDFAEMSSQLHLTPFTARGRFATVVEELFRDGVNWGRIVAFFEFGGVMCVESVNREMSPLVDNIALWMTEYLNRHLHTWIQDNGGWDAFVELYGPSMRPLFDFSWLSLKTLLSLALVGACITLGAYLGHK

Compound | Kd [1] [nM] | Kd [2] [nM] | Kd [3] [nM] | IC50 ([4]; Homo sapiens, 144 h) [nM] | IC50 ([5]; Homo sapiens, 144 h) [nM] | Fold Diff [5] | IC50 [4] [nM] | IC50 [5] [nM]
Cc1c(-c2c(C3CC3)ncc3snc(O[C@H](Cc4ccccc4OCc4ccnn4CC(F)(F)F)C(=O)O)c23)ccc(OCCN2CCN(C)CC2)c1Cl (atropisomer, axis not shown) [Compound 30] | > 1500 | > 1500 | ≤ 100 | > 5000 | 1000 to 5000 | − (“−” represents a fold difference less than 10) |  | 
Cc1c(-c2c(-c3cccc(F)c3)ncc3snc(O[C@H](Cc4ccccc4OCc4ccnn4CC(F)(F)F)C(=O)O)c23)ccc(OCCN2CCN(C)CC2)c1Cl (atropisomer, axis not shown) [Compound 26] | > 1500 | > 1500 | 101 to 500 | > 5000 | ≤ 1000 | + (“+” represents a fold difference of 10 or more) |  | 
Cc1cc2cccc(-c3ncc4snc(O[C@H](Cc5ccccc5OCc5ccnn5CC(F)(F)F)C(=O)O)c4c3-c3ccc(OCCN4CCN(C)CC4)c(Cl)c3C)c2[nH]1 (atropisomer, axis not shown) [Compound 17] | > 1500 | > 1500 | 501 to 1500 | > 5000 | > 5000 | − (“−” represents a fold difference less than 10) |  | 
Cc1c(-c2c(-c3csc4ccccc34)ncc3snc(O[C@H](Cc4ccccc4OCc4ccnn4CC(F)(F)F)C(=O)O)c23)ccc(OCCN2CCN(C)CC2)c1Cl (atropisomer, axis not shown) [Compound 19] | > 1500 | > 1500 | > 1500 | > 5000 | 1000 to 5000 | − (“−” represents a fold difference less than 10) |  | 
Cc1c(-c2c(-c3cccc4c3CCC4)ncc3snc(O[C@H](Cc4ccccc4OCc4ccnn4CC(F)(F)F)C(=O)O)c23)ccc(OCCN2CCN(C)CC2)c1Cl (atropisomer, axis not shown) [Compound 13] | > 1500 | > 1500 | > 1500 | > 5000 | > 5000 | − (“−” represents a fold difference less than 10) |  | 
COc1cccc(-c2ncc3snc(O[C@H](Cc4ccccc4OCc4ccnc(-c5ccccc5OC)n4)C(=O)O)c3c2-c2ccc(OC[C@@H]3CCCN3C)c(Cl)c2C)c1 (atropisomer, axis not shown) [Compound 49] | > 1500 | > 1500 | ≤ 100 |  |  | − (“−” represents a fold difference less than 10) | > 5000 | 1000 to 5000
Cc1c(-c2c(-c3ccccn3)ncc3snc(O[C@H](Cc4ccccc4OCc4ccnn4CC(F)(F)F)C(=O)O)c23)ccc(OCCN2CCN(C)CC2)c1Cl (atropisomer, axis not shown) [Compound 52] | > 1500 | > 1500 | 501 to 1500 | > 5000 | > 5000 | − (“−” represents a fold difference less than 10) |  | 
COc1cccc(-c2ncc3snc(O[C@H](Cc4ccccc4OCc4ccnc(-c5ccccc5OC)n4)C(=O)O)c3c2-c2ccc(OCCN(C)C)c(Cl)c2C)c1 (atropisomer, axis not shown) [Compound 46] | > 1500 | > 1500 | ≤ 100 | > 5000 | ≤ 1000 | + (“+” represents a fold difference of 10 or more) |  | 
COc1cccc(-c2ncc3snc(O[C@H](Cc4ccccc4OCc4ccnc(-c5ccccc5OC)n4)C(=O)O)c3c2-c2ccc(OC[C@H]3CCCN3C)c(Cl)c2C)c1 (atropisomer, axis not shown) [Compound 48] | > 1500 | > 1500 | ≤ 100 |  |  |  |  | 
Cc1c(-c2c(-c3cnn(C)c3)ncc3snc(O[C@H](Cc4ccccc4OCc4ccnn4CC(F)(F)F)C(=O)O)c23)ccc(OCCN2CCN(C)CC2)c1Cl (atropisomer, axis not shown) [Compound 28] | > 1500 | > 1500 | 501 to 1500 |  |  |  |  | 

The next lines start with results.

Kd [1] [nM] | Kd [2] [nM] | Kd [3] [nM] | Compound | IC50 ([4]; Homo sapiens, 144 h) [nM] | IC50 ([5]; Homo sapiens, 144 h) [nM] | Fold Diff [5] | IC50 [4] [nM] | IC50 [5] [nM]
> 1500 | > 1500 | ≤ 100 | Cc1c(-c2c(-c3cccc(F)c3)ncc3snc(O[C@H](Cc4ccccc4OCc4ccnc(-c5ccncc5)n4)C(=O)O)c23)ccc(OCCN2CCN(C)CC2)c1Cl (atropisomer, axis not shown) [Compound 72] | > 5000 | ≤ 1000 | + (“+” represents a fold difference of 10 or more) |  | 
> 1500 | > 1500 | ≤ 100 | COc1ccccc1-c1nccc(COc2ccccc2C[C@@H](Oc2nsc3cnc(C4=CCOCC4)c(-c4ccc(OCCN5CCN(C)CC5)c(Cl)c4C)c23)C(=O)O)n1 (atropisomer, axis not shown) [Compound 54] | > 5000 | 1000 to 5000 | − (“−” represents a fold difference less than 10) |  | 
> 1500 | > 1500 | ≤ 100 | COc1ccccc1-c1nccc(COc2ccccc2C[C@@H](Oc2nsc3cnc(-c4ccccn4)c(-c4ccc(OCCN5CCN(C)CC5)c(Cl)c4C)c23)C(=O)O)n1 (atropisomer, axis not shown) [Compound 53] | > 5000 | > 5000 | − (“−” represents a fold difference less than 10) |  | 
 |  | 501 to 1500 | COc1ccccc1-c1nccc(COc2ccccc2C[C@@H](Oc2nsc3cc(-c4nn(C)c5cc(Cl)ccc45)cc(-c4ccc(OCCN5CCN(C)CC5)c(Cl)c4C)c23)C(=O)O)n1 [Compound 97] | > 5000 | 1000 to 5000 | − (“−” represents a fold difference less than 10) |  | 
 |  | 101 to 500 | COc1ncccc1-c1nccc(COc2ccccc2C[C@@H](Oc2nsc3cnc(-c4cccc(F)c4)c(-c4ccc(OCCN5CCN(C)CC5)c(Cl)c4C)c23)C(=O)O)n1 (atropisomer, axis not shown) [Compound 64] | > 5000 | > 5000 | − (“−” represents a fold difference less than 10) |  | 
 |  | 101 to 500 | COc1ccccc1-c1nccc(COc2ccccc2C[C@@H](Oc2nsc3cnc(C4CCC4)c(-c4ccc(OC)c(Cl)c4C)c23)C(=O)OCc2oc(=O)oc2C)n1 (atropisomer, axis not shown) [Compound 106] | > 5000 | 1000 to 5000 | − (“−” represents a fold difference less than 10) |  | 
 |  | 101 to 500 | COc1cccc(-c2ncc3snc(O[C@H](Cc4ccccc4OCc4ccnc(N5CCC(OC)CC5)n4)C(=O)O)c3c2-c2ccc(OCCN3CCN(C)CC3)c(Cl)c2C)c1 (atropisomer, axis not shown) [Compound 70] | > 5000 | ≤ 1000 | + (“+” represents a fold difference of 10 or more) |  | 
 |  | ≤ 100 | COc1ccccc1-c1nccc(COc2ccccc2C[C@@H](Oc2nsc3cnc(C4CCC4)c(-c4ccc(OCCN5CCOCC5)c(Cl)c4C)c23)C(=O)O)n1 (atropisomer, axis not shown) [Compound 108] | > 5000 | 1000 to 5000 | − (“−” represents a fold difference less than 10) |  | 
 |  | ≤ 100 | COc1ccccc1-c1nccc(COc2ccccc2C[C@@H](Oc2nsc3cnc(-c4ccc(F)c(F)c4)c(-c4ccc(OCCN5CCN(C)CC5)c(Cl)c4C)c23)C(=O)O)n1 (atropisomer, axis not shown) [Compound 85] | > 5000 | ≤ 1000 | + (“+” represents a fold difference of 10 or more) |  | 
